Reference: patent US12383577B2, “Polysaccharide compound with a defined molecular structure that can eliminate the toxic side effects of chemotherapy drugs” (SHENZHEN YANDAI INVESTMENT CO., LTD, priority 2023, dated 2025)
Marks after values point to notes of the source that are not given here.

Experiments:
LLC-bearing mice = test: Antitumor effect of GLP-2 combined with chemotherapy on LLC-bearing mice (tumor volume, tumor index, inhibition rates); format: in vivo, C57 mice
Protocol: Healthy LLC cells were inoculated subcutaneously into the left shoulder of 8 healthy male C57 mice. […] This suspension was then injected subcutaneously into the axilla of 52 healthy male C57 mice to establish a solid tumor model. Once all mouse tumors averaged a volume of about 180 mm3, mice were randomized into groups based on tumor volume and were administered the respective drugs or drug solvents via oral gavage or intraperitoneal injection for 18 consecutive days. Longest and shortest diameters of tumors were measured every three days to calculate tumor volume, and mouse weights were recorded every three days. At the end of the experiment, tumors, spleens, and thymuses were harvested and weighed to calculate tumor, spleen, and thymus indices. […] [table] […] Where TRTV is the relative tumor volume in the experimental group, and CRTV is the relative tumor volume in the model control group. Relative tumor volume (RTV)=Vt/V0, where Vt is the tumor volume on day t of dosing, and V0 is the tumor volume at the time of grouping. […] Where T represents the average tumor weight in the treatment group, and C represents the average tumor weight in the model control group. […] Spleen and thymus organ coefficients: After the last dose, spleen, thymus, and tumor weights are measured, and organ coefficients are calculated.

[1] = LLC-bearing mice study: mortality, survival time, body weight, spleen and thymus indices; format: in vivo, C57 mice
Protocol: Healthy LLC cells were inoculated subcutaneously into the left shoulder of 8 healthy male C57 mice. Once tumors reached a volume of 2,000-3,000 mm3, they were harvested and homogenized to prepare a homogenate suspension. This suspension was then injected subcutaneously into the axilla of 52 healthy male C57 mice to establish a solid tumor model. Once all mouse tumors averaged a volume of about 180 mm3, mice were randomized into groups based on tumor volume and were administered the respective drugs or drug solvents via oral gavage or intraperitoneal injection for 18 consecutive days. Longest and shortest diameters of tumors were measured every three days to calculate tumor volume, and mouse weights were recorded every three days. At the end of the experiment, tumors, spleens, and thymuses were harvested and weighed to calculate tumor, spleen, and thymus indices.
(§1) Spleen and thymus organ coefficients: After the last dose, spleen, thymus, and tumor weights are measured, and organ coefficients are calculated.

H22-bearing mice = test: Antitumor effect of GLP-2 combined with chemotherapy on H22-bearing mice (tumor volume, tumor index, inhibition rates); format: in vivo, C57 mice; conditions: for Tumor growth inhibition rate vs. the model control group: by tumor weight, cisplatin 3 mg/kg i.p. alone or + GLP-2 low dose 50 mg/kg oral
Protocol: A homogenate suspension of H22 mouse hepatoma was injected subcutaneously under the axilla of 45 healthy male C57 mice to create a solid tumor model. Once all mouse tumors averaged a volume of about 150 mm3, mice were randomized into groups based on tumor volume and were administered the respective drugs or drug solvents via oral gavage or intraperitoneal injection for 18 consecutive days. Longest and shortest diameters of tumors were measured every three days to calculate tumor volume, and mouse weights were recorded every three days. At the end of the experiment, tumors, spleens, and thymuses were harvested and weighed to calculate tumor, spleen, and thymus indices. […] [table] […] Where TRTV is the relative tumor volume in the experimental group, and CRTV is the relative tumor volume in the model control group. Relative tumor volume (RTV)=Vt/V0, where Vt is the tumor volume on day t of dosing, and V0 is the tumor volume at the time of grouping. […] Where T represents the average tumor weight in the treatment group, and C represents the average tumor weight in the model control group. […] Spleen and thymus organ coefficients: After the last dose, spleen, thymus, and tumor weights are measured, and organ coefficients are calculated.

[2] = H22-bearing mice study: mortality, survival time, body weight, spleen and thymus indices; format: in vivo, C57 mice
Protocol: A homogenate suspension of H22 mouse hepatoma was injected subcutaneously under the axilla of 45 healthy male C57 mice to create a solid tumor model. Once all mouse tumors averaged a volume of about 150 mm3, mice were randomized into groups based on tumor volume and were administered the respective drugs or drug solvents via oral gavage or intraperitoneal injection for 18 consecutive days. Longest and shortest diameters of tumors were measured every three days to calculate tumor volume, and mouse weights were recorded every three days. At the end of the experiment, tumors, spleens, and thymuses were harvested and weighed to calculate tumor, spleen, and thymus indices.
as §1

[3] = system: orthotopic H22-bearing mice; test: Orthotopic H22-bearing mice: liver tumor by small animal in vivo imaging; parameters: species or system C57 mice; conditions: Kanglaite soft capsule 1404 mg/kg oral, GLP-2 low dose 130 mg/kg oral
Protocol: An additional 6 mice served as the normal control group. […] The proposed clinical dose for Kanglaite soft capsules is 0.45 g per capsule, 6 capsules per dose, 4 doses per day, which totals 10.8 g per day. […] This study used the proposed clinical dose as a basis for the experiment. […] [table] Tumor volume measurement: Tumor volume changes were measured weekly using small animal in vivo imaging technology.

[4] = Orthotopic H22-bearing mice study: mortality, body weight, organ coefficients; format: in vivo; conditions: Kanglaite soft capsule 1404 mg/kg oral, GLP-2 low dose 130 mg/kg oral
From the text: (§2) An additional 6 mice served as the normal control group.

[5] = Orthotopic H22-bearing mice study: routine blood tests and liver/kidney function indicators; format: in vivo, C57 mice; conditions: blood after last dose, cisplatin 4 mg/kg i.p., Kanglaite soft capsule 1404 mg/kg oral, GLP-2 low dose 130 mg/kg oral
Protocol: as §2
Hematological tests: After the last dose, routine blood tests (WBC and RBC) and biochemical tests (liver and kidney functions) were performed.

[6] = system: lymphocyte subtypes CD3+/CD4+ and CD3+/CD8+ in the blood; test: Orthotopic H22-bearing mice study: blood CD3+/CD4+ and CD3+/CD8+ by flow cytometry; format: in vivo, C57 mice; conditions: blood after last dose, cisplatin 4 mg/kg i.p., Kanglaite soft capsule 1404 mg/kg oral, GLP-2 low dose 130 mg/kg oral
Protocol: as §2
CD4^+and CD8^+content measurement: After the last dose, lymphocyte subtypes CD3^+/CD4^+and CD3^+/CD8^+in the blood were measured using flow cytometry.

[7] = D0, cisplatin 4 mg/kg i.p. alone or + GLP-2 low dose 50 mg/kg oral
[8] = D3, cisplatin 4 mg/kg i.p. alone or + GLP-2 low dose 50 mg/kg oral
[9] = D6, cisplatin 4 mg/kg i.p. alone or + GLP-2 low dose 50 mg/kg oral
[10] = D9, cisplatin 4 mg/kg i.p. alone or + GLP-2 low dose 50 mg/kg oral
[11] = D12, cisplatin 4 mg/kg i.p. alone or + GLP-2 low dose 50 mg/kg oral
[12] = D15, cisplatin 4 mg/kg i.p. alone or + GLP-2 low dose 50 mg/kg oral
[13] = D18, cisplatin 4 mg/kg i.p. alone or + GLP-2 low dose 50 mg/kg oral
[14] = D0, cisplatin 3 mg/kg i.p. alone or + GLP-2 low dose 50 mg/kg oral
[15] = D3, cisplatin 3 mg/kg i.p. alone or + GLP-2 low dose 50 mg/kg oral
[16] = D6, cisplatin 3 mg/kg i.p. alone or + GLP-2 low dose 50 mg/kg oral
[17] = D9, cisplatin 3 mg/kg i.p. alone or + GLP-2 low dose 50 mg/kg oral
[18] = D12, cisplatin 3 mg/kg i.p. alone or + GLP-2 low dose 50 mg/kg oral
[19] = D15, cisplatin 3 mg/kg i.p. alone or + GLP-2 low dose 50 mg/kg oral
[20] = D18, cisplatin 3 mg/kg i.p. alone or + GLP-2 low dose 50 mg/kg oral
[21] = 18 days, cisplatin 3 mg/kg i.p. alone or + GLP-2 low dose 50 mg/kg oral
[22] = 14 days, cisplatin 4 mg/kg i.p.

SMILES: N.N.[Cl][Pt][Cl] [Cisplatin]
- Tumor volume (LLC-bearing mice; [7]): 193 ± 41.9 mm^3
- Tumor volume (LLC-bearing mice; [8]): 350.8 ± 138.5 mm^3
- Tumor volume (LLC-bearing mice; [9]): 692.4± 215.3^+ mm^3
- Tumor volume (LLC-bearing mice; [10]): 956.4± 394^+ mm^3
- Tumor volume (LLC-bearing mice; [11]): 1186.6± 386.4^+ mm^3
- Tumor volume (LLC-bearing mice; [12]): 1388.9± 448.2^+ mm^3
- Tumor volume (LLC-bearing mice; [13]): 1679.8± 439^+ mm^3
- Tumor growth inhibition rate vs. the model control group (LLC-bearing mice; by tumor weight, cisplatin 4 mg/kg i.p. alone or + GLP-2 low dose 50 mg/kg oral): 67.3%
- Number of deaths ([1]; 18 days, cisplatin 4 mg/kg i.p. alone or + GLP-2 low dose 50 mg/kg oral): 2
- Weight [1, 7]: 20.8 ± 1.4 g
- Weight [1, 8]: 20.7 ± 1.3 g
- Weight [1, 9]: 20.4 ± 1 g
- Weight [1, 10]: 19.7± 0.8*^+ g
- Weight [1, 11]: 18.5 ± 0.6*+ g
- Weight [1, 12]: 18.2± 1.2*^+ g
- Weight [1, 13]: 17.9± 1.4*^+ g
- Survival time ([1]; cisplatin 4 mg/kg i.p. alone or + GLP-2 low dose 50 mg/kg oral): 17.1 ± 1.9 days
- Tumor volume (H22-bearing mice; [14]): 167.9 ± 42.2 mm^3
- Tumor volume (H22-bearing mice; [15]): 205.9 ± 122.5 mm^3
- Tumor volume (H22-bearing mice; [16]): 417.4 ± 228.3 mm^3
- Tumor volume (H22-bearing mice; [17]): 577.3 ± 420.2 mm^3
- Tumor volume (H22-bearing mice; [18]): 798± 676.5^+ mm^3
- Tumor volume (H22-bearing mice; [19]): 952.7± 711.9^+ mm^3
- Tumor volume (H22-bearing mice; [20]): 1097± 805.3^+ mm^3
- Tumor growth inhibition rate vs. the model control group (H22-bearing mice): 57.3^+ %
- Tumor growth inhibition rate vs. the model control group (H22-bearing mice; listed as cisplatin): 57.3%
- Mortality rate [2, 21]: 0.0%
- Number of deaths [2, 21]: 0
- Weight [2, 14]: 20.6 ± 1.3 g
- Weight [2, 15]: 20.8 ± 1.3 g
- Weight [2, 16]: 21 ± 1.3 g
- Weight [2, 17]: 21 ± 1.5 g
- Weight [2, 18]: 20.7± 1.4^+ g
- Weight [2, 19]: 20.5± 1.4^+ g
- Weight [2, 20]: 19.9± 1.7^+ g
- Survival time ([2]; cisplatin 3 mg/kg i.p. alone or + GLP-2 low dose 50 mg/kg oral): 18 ± 0 days
- Tumor ([3]; W0, cisplatin 4 mg/kg i.p.): 3756000 ± 2439052 P/s/cm^2/sr
- Tumor ([3]; W1, cisplatin 4 mg/kg i.p.): 12898500 ± 3588676 P/s/cm^2/sr
- Tumor ([3]; W2, cisplatin 4 mg/kg i.p.): 11871333 ± 2780016^& P/s/cm^2/sr
- Mortality rate [4, 22]: 50.0%
- Number of deaths [4, 22]: 3
- Number of surviving animals [4, 22]: 3
- Weight ([4]; W0, cisplatin 4 mg/kg i.p.): 18.5 ± 1.3 g
- Weight ([4]; W1, cisplatin 4 mg/kg i.p.): 16.9 ± 1.8 g
- Weight ([4]; W2, cisplatin 4 mg/kg i.p.): 15.1 ± 1.6 g
- Liver coefficient ([4]; cisplatin 4 mg/kg i.p.): 11.365 ± 3.599%
- Spleen coefficient ([4]; cisplatin 4 mg/kg i.p.): 0.524± 0.295 %
- Thymus coefficient ([4]; cisplatin 4 mg/kg i.p.): 0.078 ± 0.023 %
- ALT [5]: 115 ± 39 U/L
- AST [5]: 771 ± 153 UL
- BUN [5]: 13.52 ± 4.94 mmol/L
- CRE [5]: 18.9 ± 2.7 µmol/L
- RBC [5]: 8.91 ± 0.22 10^12/L
- WBC [5]: 4.41 ± 1.83 10^9/L
- CD3^+/CD4^+ [6]: 4.26 ± 0.04
- CD3^+/CD8^+ [6]: 4.21 ± 0.81
